Test results reported in US10105357B2, “Indication of antibiotic drugs for preparation of cancer inhibition pharmaceutical composition” (LAUNX BIOMEDICAL CO., LTD., priority 2014, dated 2018).
Several values for one entry are separate records, joined by “and”; a condition that tells them apart may be missing. Equal entries are not always repeated. Structures can show the parent of a compound that is named as a salt. Where two headings read alike, the source gives them in different places.

Tests used:
[1] = system: C-33A (Cervical carcinoma); assay: Cell viability analysis, cervical cancer C-33A; type: cell-based, human; details: Homo sapiens, C-33-A, 72 h, read-out: The results of antibiotic drug inhibiting cancer cell lines (cell viability analysis), C-33A
[2] = system: LoVo (Colorectal Adenocarcinoma); assay: Cell viability analysis, colon cancer LoVo; type: cell-based, human; details: Homo sapiens, LoVo, 72 h
[3] = system: HI650 (Lung Adenocarcinoma); assay: Cell viability analysis, lung cancer HI650; type: cell-based, human; details: Homo sapiens, NCI-H1650, 72 h
[4] = system: BCC (basal cell carcinoma); assay: Cell viability analysis, skin cancer BCC; type: cell-based, human; details: Homo sapiens, 72 h, read-out: The results of antibiotic drug inhibiting cancer cell lines (cell viability analysis), BCC
[5] = system: TOV-21G; assay: Cell viability analysis, ovarian cancer TOV-21G; type: cell-based, human; details: Homo sapiens, TOV21G, 72 h, read-out: The results of antibiotic drug inhibiting cancer cell lines (cell viability analysis), TOV-21G
[6] = system: MCF7 (Mammary Gland, Adenocarcinoma); assay: Cell viability analysis, breast cancer MCF7; type: cell-based, human; details: Homo sapiens, MCF7, 72 h
[7] = system: U-2OS; assay: Cell viability analysis, osteosarcoma U-2OS; type: cell-based, human; details: Homo sapiens, U2OS, 72 h, read-out: The results of antibiotic drug inhibiting cancer cell lines (cell viability analysis), U2OS
[8] = system: AsPC-1; assay: Cell viability analysis, pancreatic cancer AsPC-1; type: cell-based, human; details: Homo sapiens, ASPC1, 72 h, read-out: The results of antibiotic drug inhibiting cancer cell lines (cell viability analysis), AsPC-1
[9] = system: HCT116 (p53+) (Colorectal Carcinoma)
[10] = system: HeLa (Cervix Adenocarcinoma); assay: Cell viability analysis, cervical cancer HeLa; type: cell-based, human; details: Homo sapiens, HeLa, 72 h
[11] = system: PC3 (p53−) (Prostate Adenocarcinoma); assay: Cell viability analysis, prostate cancer PC3; type: cell-based, human; details: Homo sapiens, 72 h
[12] = system: MKN-45 (Gastric Adenocarcinoma); assay: Cell viability analysis, gastric cancer MKN-45; type: cell-based, human; details: Homo sapiens, MKN-45, 72 h
[13] = system: NIH: OVCAR-3; assay: Cell viability analysis, ovarian cancer NIH: OVCAR-3; type: cell-based, human; details: Homo sapiens, OVCAR-3, 72 h, read-out: The results of antibiotic drug inhibiting cancer cell lines (cell viability analysis), NIH-OVCAR-3
[14] = system: HL-60 (Acute Promyelocytic Leukemia); assay: Cell viability analysis, leukemia HL-60; type: cell-based, human; details: Homo sapiens, HL-60, 72 h, read-out: cell viability (survival rate), HL-60, drug 10 μM, 72 hours, WST-1, OD450 nm
[15] = system: SAS (Tongue squamous cell carcinoma); assay: Cell viability analysis, tongue cancer SAS; type: cell-based, human; details: Homo sapiens, 72 h, read-out: The results of antibiotic drug inhibiting cancer cell lines (cell viability analysis), SAS
[16] = system: 786-O (Renal adenocarcinoma); assay: Cell viability analysis, renal cancer 786-O; type: cell-based, human; details: Homo sapiens, 786-0, 72 h, read-out: The results of antibiotic drug inhibiting cancer cell lines (cell viability analysis), 786-O
[17] = system: A375 (Amelanotic Melanoma); assay: Cell viability analysis, skin cancer A375; type: cell-based, human; details: Homo sapiens, A-375, 72 h
[18] = system: MDA-MB-231 (Mammary Gland, Adenocarcinoma); assay: Cell viability analysis, breast cancer MDA-MB-231; type: cell-based, human; details: Homo sapiens, MDA-MB-231, 72 h, read-out: The results of antibiotic drug inhibiting cancer cell lines (cell viability analysis), MDA-MB231
[19] = system: AGS (Gastric Adenocarcinoma); assay: Cell viability analysis, gastric cancer AGS; type: cell-based, human; details: Homo sapiens, 72 h
[20] = system: T24; assay: Cell viability analysis, bladder cancer T24; type: cell-based, human; details: Homo sapiens, T-24, 72 h, read-out: The results of antibiotic drug inhibiting cancer cell lines (cell viability analysis), T24
[21] = system: BxPC-3; assay: Cell viability analysis, pancreatic cancer BxPC-3; type: cell-based, human; details: Homo sapiens, BXPC-3, 72 h, read-out: The results of antibiotic drug inhibiting cancer cell lines (cell viability analysis), BxPC-3
[22] = system: A549 (Lung Adenocarcinoma); assay: Cell viability analysis, lung cancer A549; type: cell-based, human; details: Homo sapiens, A549, 72 h
[23] = system: Hep3B (hepatocellular carcinoma); assay: Cell viability analysis, hepatic cancer Hep3B; type: cell-based, human; details: Homo sapiens, Hep3B, 72 h, read-out: The results of antibiotic drug inhibiting cancer cell lines (cell viability analysis), Hep3B
[24] = system: TSGH-8301 (Urinary Bladder Carcinoma); assay: Cell viability analysis, bladder cancer TSGH-8301; type: cell-based, human; details: Homo sapiens, 72 h
[25] = read-out: The results of antibiotic drug inhibiting cancer cell lines (cell viability analysis), LoVo, repeated experiment
[26] = read-out: cell viability (survival rate), LoVo, drug 10 μM, 72 hours, WST-1, OD450 nm
[27] = read-out: The results of antibiotic drug inhibiting cancer cell lines (cell viability analysis), H1650, H1650, repeated experiment
[28] = read-out: cell viability (survival rate), H1650, drug 10 μM, 72 hours, WST-1, OD450 nm
[29] = read-out: The results of antibiotic drug inhibiting cancer cell lines (cell viability analysis), MCF-7, MCF-7, repeated experiment
[30] = read-out: cell viability (survival rate), MCF7, drug 10 μM, 72 hours, WST-1, OD450 nm
[31] = read-out: The results of antibiotic drug inhibiting cancer cell lines (cell viability analysis), HeLa, repeated experiment
[32] = read-out: cell viability (survival rate), HeLa, drug 10 μM, 72 hours, WST-1, OD450 nm
[33] = read-out: The results of antibiotic drug inhibiting cancer cell lines (cell viability analysis), PC-3, PC-3, repeated experiment
[34] = read-out: cell viability (survival rate), PC3, drug 10 μM, 72 hours, WST-1, OD450 nm
[35] = read-out: The results of antibiotic drug inhibiting cancer cell lines (cell viability analysis), MKN-45, MKN-45, repeated experiment
[36] = read-out: cell viability (survival rate), MKN-45, drug 10 μM, 72 hours, WST-1, OD450 nm
[37] = read-out: The results of antibiotic drug inhibiting cancer cell lines (cell viability analysis), A375, A375, repeated experiment
[38] = read-out: cell viability (survival rate), A375, drug 10 μM, 72 hours, WST-1, OD450 nm
[39] = read-out: The results of antibiotic drug inhibiting cancer cell lines (cell viability analysis), AGS, repeated experiment
[40] = read-out: cell viability (survival rate), AGS, drug 10 μM, 72 hours, WST-1, OD450 nm
[41] = read-out: The results of antibiotic drug inhibiting cancer cell lines (cell viability analysis), A549, A549, repeated experiment
[42] = read-out: cell viability (survival rate), A549, drug 10 μM, 72 hours, WST-1, OD450 nm
[43] = read-out: The results of antibiotic drug inhibiting cancer cell lines (cell viability analysis), TSGH-8301, TSGH-8301, repeated experiment
[44] = read-out: cell viability (survival rate), TSGH, drug 10 μM, 72 hours, WST-1, OD450 nm

Compound | viability at 10 µM [1] [%] | viability at 10 µM [2, 25] [%] | viability at 10 µM [2, 26] [%] | viability at 10 µM [3, 27] [%] | viability at 10 µM [3, 28] [%] | viability at 10 µM [4] [%] | viability at 10 µM [5] [%] | viability at 10 µM [6, 29] [%] | viability at 10 µM [6, 30] [%] | viability at 10 µM [7] [%] | viability at 10 µM [8] [%] | viability [9] | viability at 10 µM [10, 31] [%] | viability at 10 µM [10, 32] [%] | viability at 10 µM [11, 33] [%] | viability at 10 µM [11, 34] [%] | viability at 10 µM [12, 35] [%] | viability at 10 µM [12, 36] [%] | viability at 10 µM [13] [%] | viability at 10 µM [14] [%] | other results
CC(C)(C)C(=O)OCOP(=O)(COCCn1cnc2c(N)ncnc21)OCOC(=O)C(C)(C)C [Adefovir Dipivoxil (Preveon, Hepsera), Adefovir Dipivoxil] | 68 | 58.1 | 62 | 54 | 55.3 | 38.9 | 77.3 | 75.5 | 56.7 | 68.5 | 48.7 | 55.4% | 77.4 | 96.6 | 74.8 | 91.3 | 86.6 | 46.1 | 78.8 | 60.4 | viability at 10 µM [15]: 40%; viability at 10 µM [16]: 25.9%; viability at 10 µM [17, 37]: 37.7%; viability at 10 µM [17, 38]: 81.7%; viability at 10 µM [18]: 71.9%; viability at 10 µM [19, 39]: 78%; viability at 10 µM [19, 40]: 35.1%; viability at 10 µM [20]: 44.8%; viability at 10 µM [21]: 56.9%; viability at 10 µM [22, 41]: 76.7%; viability at 10 µM [22, 42]: 47.3%; viability at 10 µM [23]: 71.5%; viability at 10 µM [24, 43]: 70%; viability at 10 µM [24, 44]: 47%
CN(C)[C@@H]1C(O)=C(C(N)=O)C(=O)[C@@]2(O)C(O)=C3C(=O)c4c(O)cccc4[C@@](C)(O)[C@H]3C[C@@H]12 [Tetracycline HCl] | 103 | 92 | 71.8 | 87.1 | 41.1 | 100 | 81.9 | 93.1 | 75.9 | 53.3 | 96.7 | 115% and 114% | 79 | 96.1 | 104 | 42.9 | 133 | 55.9 | 104 | 93.7 | viability at 10 µM [15]: 79.2%; viability at 10 µM [16]: 99.9%; viability at 10 µM [17, 37]: 82.8%; viability at 10 µM [17, 38]: 74.1%; viability at 10 µM [18]: 88.1%; viability at 10 µM [19, 39]: 94%; viability at 10 µM [19, 40]: 88.2%; viability at 10 µM [20]: 130%; viability at 10 µM [21]: 77.7%; viability at 10 µM [22, 41]: 99.7%; viability at 10 µM [22, 42]: 72.8%; viability at 10 µM [23]: 92.2%; viability at 10 µM [24, 43]: 103%; viability at 10 µM [24, 44]: 34.1%
